# Test results taken from US5756478A, “Method for reducing toxicity of D-nucleoside analogs with L-nucleosides” (priority 1996, dated 1998).
# pIC50: −log10 of the molar value. Where “and” joins values, the source holds several entries; their conditions need not be identical. Equal values may be shown once. Entries after “also recorded” stand apart in the source; their conditions may differ. Read-outs that look alike come from different tables or passages of the source.
# Experiments:
# Type in all cases: cell-based
# HIV-1IIIB [1] = experiment: Anti-HIV combination of D- and L-nucleosides in HIV-1IIIB infected MT-2 cells (isobolograms); settings: for Nature of the anti-HIV combination effect with L-nucleosides (ID50): D-nucleoside co-administered with β-L-FddC, L(-)FTC, L(-)SddC or β-L-Fd4C; for Effect of L-nucleoside on ID50 of co-administered D-nucleoside: with AZT, D4T, ddC or DDI
# Protocol: (§1) The following anti-HIV drugs were tested in combination with the L-nucleosides β-L-5-fluoro-2',b 3'-dideoxycytidine [β-L-FddC or L(-)FddC], β-L-5-fluoro-2',3'-dideoxy-2',3'-didehydrocytidine [β-L-Fd4C or L(-)Fd4C], β-L-5-fluoro-2',3'-dideoxy-3'-thiacytidine [L(-)FTC] and β-L-2',3'-dideoxy-3'-thiacytidine [L(-)SddC or 3TC]: 3'-azido-3'deoxythymidine (AZT) as well as the β-D-2',3'-dideoxynucleosides, for example, β-D-2',3'-dideoxycytidine (ddC), β-D-2',3'-dideoxyadenosine, β-D-2',3'-dideoxyinosine (DDI) and β-D-2',3'-didehydro-3'-deoxy-thymidine (D4T). β-L-FddC and β-L-Fd4C was obtained following the method of Lin, et al., J. Med. Chem., 37, no. 6 (1994). L(-)FTC and L(-)SddC were prepared by standard literature procedures. See, for example, Jeong, et al. J. Med. Chem., 36, 181 (1993). AZT was obtained from Sigma Chemical Co., St. Louis, Mo., USA. ddC was obtained from Aldrich Chemical Co., Milwaukke, Wis. USA. DDI and D4T were obtained from Bristol-Myers Co., Wallingford, Conn., USA.
# (§2) The above-mentioned drugs were tested using MT-2 cells infected with HIV-1IIIB as described by JW Mellers, et al., Molecular Pharm. 41, 446-451 (1991) with some modification. Briefly, triplicate wells of 96-well plates containing 1×10^4 MT-2 cells were infected with HIV-1IIIB at a multiplicity of infection (MOI) of 0.1 TCID50 per cell (TCID50 - 50% tissue culture infective dose). Serial dilutions of drug were added immediately after infection. Cell viability was quantitated 5 days after infection by the MTT-dye reduction model (Larder, et al. Antimicrob. Agents Chemother. 34, 436-441, 1990). The percentage of protection was calculated with the formula [(a-b/c-b)×100], in which a=the A595 of drug-treated, virus-infected well, b=A595 of no-drug infected wells, and c=A595 of no-drug, uninfected wells.
# Isobolograms (FIGS. 1-2) were plotted as the percent change in the ID50 of β-L-FddC (L(-)FddC), L(-)FTC, L(-)SddC (FIGS. 1 and 2) β-L-Fd4C (L(-)Fd4C) at various concentrations in combination with AZT, D4T, ddC or DDI at varying concentations on the x-axis and vice versa on the y-axis. Isobolograms (FIG. 3) were plotted as the percent change in the ID50 of β-L-Fd4C (L(-)Fd4C) at various concentrations in combination with AZT or D4T at varying concentrations on the x-axis and vice-versa on the y-axis.
# [2] = system: CEM, a Human T-type lymphoblast tumor cell line; experiment: Cell growth inhibition of CEM cells by D-nucleosides with or without L-nucleosides
# Excerpt: CEM, a Human T-type lymphoblast tumor cell line was used for this study. […] At the end of four days after the addition of the drug, the cell number was estimated by hemocytometer. […] The data, presented below in Table 1-3, are normalized against the control. The parenthetical values represent the expected effect the combined agents should have on cell growth.
# HIV-1IIIB [3] = experiment: Anti-HIV activity: protection of MT-2 cells infected with HIV-1IIIB (MTT-dye reduction); settings: Human immunodeficiency virus 1, MT2, 120 h
# Protocol: as §1, §2
# [4] = 50 uM, in combination with 1 uM 3TC
# [5] = 50 uM, in combination with 1 uM (-) FTC
# [6] = 50 uM, in combination with 1 uM β-L-FddC
# [7] = Homo sapiens, CCRF-CEM, 96 h, single agent, 50 uM, day 4, read-out: Day 4 Cell Growth - % of Control
# [8] = MT-2 cells, HIV-1IIIB, MOI 0.1 TCID50 per cell, 5 days, read-out: ID50 (the source's name)
smiles,measurement,setting,value
"Cc1cn([C@H]2C[C@H](N=[N+]=[N-])[C@@H](CO)O2)c(=O)[nH]c1=O [AZT, 3'-azido-3'deoxythymidine]",Nature of the anti-HIV combination effect with L-nucleosides (ID50),HIV-1IIIB [1],synergistically; also recorded: synergistic
same,Day 4 Cell Growth - % of Control,"[2]; 0.5 uM, in combination with 1 uM 3TC",83 % of Control
same,Day 4 Cell Growth - % of Control,"[2]; 0.5 uM, in combination with 1 uM (-) FTC",87 % of Control
same,Day 4 Cell Growth - % of Control,"[2]; 0.5 uM, in combination with 1 uM β-L-FddC",80 % of Control
same,Day 4 Cell Growth - % of Control,"[2]; 5.0 uM, in combination with 1 uM 3TC",76 % of Control
same,Day 4 Cell Growth - % of Control,"[2]; 5.0 uM, in combination with 1 uM (-) FTC",83 % of Control
same,Day 4 Cell Growth - % of Control,"[2]; 5.0 uM, in combination with 1 uM β-L-FddC",79 % of Control
same,Day 4 Cell Growth - % of Control,[2]; [4],70 % of Control
same,Day 4 Cell Growth - % of Control,[2]; [5],64 % of Control
same,Day 4 Cell Growth - % of Control,[2]; [6],75 % of Control
same,activity at 0.5 µM,"[2]; Homo sapiens, CCRF-CEM, 96 h, single agent, 0.5 uM, day 4, read-out: Day 4 Cell Growth - % of Control",91%
same,activity at 5 µM,"[2]; Homo sapiens, CCRF-CEM, 96 h, single agent, 5.0 uM, day 4, read-out: Day 4 Cell Growth - % of Control",89%
same,activity at 50 µM,[2]; [7],74%
same,"Day 4 Cell Growth - % of Control, expected effect of the combined agents (parenthetical)",[2]; 0.5 uM with 1 uM β-L-FddC,76 % of Control
same,"Day 4 Cell Growth - % of Control, expected effect of the combined agents (parenthetical)",[2]; 5.0 uM with 1 uM β-L-FddC,75 % of Control
same,"Day 4 Cell Growth - % of Control, expected effect of the combined agents (parenthetical)",[2]; 50 uM with 1 uM β-L-FddC,62 % of Control
same,Day 4 Cell Growth - % of Control,"[2]; single agent, 0.5 uM, 5760 min",82 % of Control and 85 % of Control
same,Day 4 Cell Growth - % of Control,"[2]; single agent, 5.0 uM, 5760 min",79 % of Control
same,Day 4 Cell Growth - % of Control,"[2]; single agent, 50 uM, 5760 min",72 % of Control
same,pIC50,HIV-1IIIB [3]; read-out: ID50,7.05
"Cc1cn([C@H]2C=C[C@@H](CO)O2)c(=O)[nH]c1=O [D4T, β-D-2',3'-didehydro-3'-deoxy-thymidine]",Nature of the anti-HIV combination effect with L-nucleosides (ID50),HIV-1IIIB [1],synergistically; also recorded: synergistic
same,Day 4 Cell Growth - % of Control,"[2]; 0.3 uM, in combination with 1 uM 3TC",94 % of Control
same,Day 4 Cell Growth - % of Control,"[2]; 0.3 uM, in combination with 1 uM (-) FTC",84 % of Control
same,Day 4 Cell Growth - % of Control,"[2]; 0.3 uM, in combination with 1 uM β-L-FddC",86 % of Control
same,Day 4 Cell Growth - % of Control,"[2]; 3.0 uM, in combination with 1 uM 3TC",86 % of Control
same,Day 4 Cell Growth - % of Control,"[2]; 3.0 uM, in combination with 1 uM (-) FTC",75 % of Control
same,Day 4 Cell Growth - % of Control,"[2]; 3.0 uM, in combination with 1 uM β-L-FddC",75 % of Control
same,Day 4 Cell Growth - % of Control,"[2]; 30 uM, in combination with 1 uM 3TC",73 % of Control
same,Day 4 Cell Growth - % of Control,"[2]; 30 uM, in combination with 1 uM (-) FTC",65 % of Control
same,Day 4 Cell Growth - % of Control,"[2]; 30 uM, in combination with 1 uM β-L-FddC",68 % of Control
same,activity at 0.3 µM,"[2]; Homo sapiens, CCRF-CEM, 96 h, single agent, 0.3 uM, day 4, read-out: Day 4 Cell Growth - % of Control",98%
same,activity at 3 µM,"[2]; Homo sapiens, CCRF-CEM, 96 h, single agent, 3.0 uM, day 4, read-out: Day 4 Cell Growth - % of Control",84%
same,activity at 30 µM,"[2]; Homo sapiens, CCRF-CEM, 96 h, single agent, 30 uM, day 4, read-out: Day 4 Cell Growth - % of Control",70%
same,"Day 4 Cell Growth - % of Control, expected effect of the combined agents (parenthetical)",[2]; 0.3 uM with 1 uM β-L-FddC,82 % of Control
same,"Day 4 Cell Growth - % of Control, expected effect of the combined agents (parenthetical)",[2]; 3.0 uM with 1 uM β-L-FddC,71 % of Control
same,"Day 4 Cell Growth - % of Control, expected effect of the combined agents (parenthetical)",[2]; 30 uM with 1 uM β-L-FddC,59 % of Control
same,Day 4 Cell Growth - % of Control,"[2]; single agent, 0.3 uM, 5760 min",89 % of Control
same,Day 4 Cell Growth - % of Control,"[2]; single agent, 3.0 uM, 5760 min",80 % of Control
same,Day 4 Cell Growth - % of Control,"[2]; single agent, 30 uM, 5760 min",65 % of Control and 64 % of Control
same,pIC50,HIV-1IIIB [3]; read-out: ID50,5.22
"O=c1[nH]cnc2c1ncn2C1CCC(CO)O1 [DDI, β-D-2',3'-dideoxyinosine]",Nature of the anti-HIV combination effect with L-nucleosides (ID50),HIV-1IIIB [1],additively; also recorded: additive
same,Day 4 Cell Growth - % of Control,[2]; [4],89 % of Control
same,Day 4 Cell Growth - % of Control,[2]; [5],84 % of Control
same,Day 4 Cell Growth - % of Control,[2]; [6],84 % of Control
same,Day 4 Cell Growth - % of Control,"[2]; 100 uM, in combination with 1 uM 3TC",87 % of Control
same,Day 4 Cell Growth - % of Control,"[2]; 100 uM, in combination with 1 uM (-) FTC",80 % of Control
same,Day 4 Cell Growth - % of Control,"[2]; 100 uM, in combination with 1 uM β-L-FddC",80 % of Control
same,Day 4 Cell Growth - % of Control,"[2]; 200 uM, in combination with 1 uM 3TC",80 % of Control
same,Day 4 Cell Growth - % of Control,"[2]; 200 uM, in combination with 1 uM (-) FTC",75 % of Control
same,Day 4 Cell Growth - % of Control,"[2]; 200 uM, in combination with 1 uM β-L-FddC",75 % of Control
same,activity at 50 µM,[2]; [7],88%
same,activity at 100 µM,"[2]; Homo sapiens, CCRF-CEM, 96 h, single agent, 100 uM, day 4, read-out: Day 4 Cell Growth - % of Control",85%
same,activity at 200 µM,"[2]; Homo sapiens, CCRF-CEM, 96 h, single agent, 200 uM, day 4, read-out: Day 4 Cell Growth - % of Control",78%
same,"Day 4 Cell Growth - % of Control, expected effect of the combined agents (parenthetical)",[2]; 50 uM with 1 uM (-) FTC,74 % of Control
same,"Day 4 Cell Growth - % of Control, expected effect of the combined agents (parenthetical)",[2]; 50 uM with 1 uM β-L-FddC,74 % of Control
same,"Day 4 Cell Growth - % of Control, expected effect of the combined agents (parenthetical)",[2]; 100 uM with 1 uM (-) FTC,71 % of Control
same,"Day 4 Cell Growth - % of Control, expected effect of the combined agents (parenthetical)",[2]; 100 uM with 1 uM β-L-FddC,71 % of Control
same,"Day 4 Cell Growth - % of Control, expected effect of the combined agents (parenthetical)",[2]; 200 uM with 1 uM (-) FTC,65 % of Control
same,"Day 4 Cell Growth - % of Control, expected effect of the combined agents (parenthetical)",[2]; 200 uM with 1 uM β-L-FddC,65 % of Control
same,Day 4 Cell Growth - % of Control,"[2]; single agent, 50 uM, 5760 min",94 % of Control
same,Day 4 Cell Growth - % of Control,"[2]; single agent, 100 uM, 5760 min",89 % of Control
same,Day 4 Cell Growth - % of Control,"[2]; single agent, 200 uM, 5760 min",79 % of Control
same,pIC50,HIV-1IIIB [3]; [8],4.70
"Nc1ccn([C@@H]2CS[C@H](CO)O2)c(=O)n1 [L(-)SddC, β-L-2',3'-dideoxy-3'-thiacytidine]",Effect of L-nucleoside on ID50 of co-administered D-nucleoside,HIV-1IIIB [1],"reduces the ID50 value of AZT, ddC, DDI and D4T; also recorded: decreases the ID50 of a co-administered D-nucleoside and vice versa"
same,activity at 0.1 µM,"[2]; Homo sapiens, CCRF-CEM, 96 h, single agent, 0.1 uM, day 4, read-out: Day 4 Cell Growth - % of Control",94%
same,activity at 1 µM,"[2]; Homo sapiens, CCRF-CEM, 96 h, single agent, 1.0 uM, day 4, read-out: Day 4 Cell Growth - % of Control",89%
same,activity at 10 µM,"[2]; Homo sapiens, CCRF-CEM, 96 h, single agent, 10 uM, day 4, read-out: Day 4 Cell Growth - % of Control",80%
same,activity at 50 µM,[2]; [7],76%
same,pIC50,"HIV-1IIIB [3]; MT-2 cells, HIV-1IIIB, MOI 0.1 TCID50 per cell, 5 days, unit inferred, read-out: ID50 (the source's name)",5.52
"Nc1nc(=O)n([C@@H]2C=C[C@H](CO)O2)cc1F [β-L-Fd4C, β-L-5-fluoro-2',3'-dideoxy-2',3'-didehydrocytidine]",Effect of L-nucleoside on ID50 of co-administered D-nucleoside,HIV-1IIIB [1],"reduces the ID50 value of AZT, ddC, DDI and D4T; also recorded: decreases the ID50 of a co-administered D-nucleoside and vice versa"
same,pIC50,HIV-1IIIB [3]; [8],7.05
